How the values were obtained:
VEGF-induced HUVEC cells = test: CellTiter-Glo assay in VEGF-induced HUVEC cells; type: cell-based; conditions: Homo sapiens; Table 2; VEGF-induced (20 ng/ml) HUVEC cells, 72 hours, cell viability (ATP luminescence); read-out: IC50 HCT 116
Method: CellTiter-Glo™ Assay in VEGF-Induced HUVEC Cells:
HUVEC-c (Human Umbilical Vein Endothelial Cells, from Promocell Cat-No. C-12200) cells were trypsinized, spinned down and plated in 384-well plates at 1500 cells per well in 60 μl endothelial basal medium (EBM-2 from Promocell, Cat-No. C-22211) with 0.5% Fetal Calf Serum (FCS, Sigma Cat-No. F4135 (FBS)). Cells were incubated overnight at 37° C., and the next day, test compounds (stock solution 140 μmol/l in medium with 4.2% dimethylsulfoxide (DMSO)) were added in 5 μl medium over a final concentration range of 10 μmol/l to 0.5 nmol/l and 0.3% DMSO. Compounds were tested in triplicates. After 2 hrs 5 μl VEGF (VEGF 165, R&D Systems, Cat-No. 293-VE-010, stock solution 280 ng/ml in medium) was added to a final concentration of 20 ng/ml. Cells were incubated for 72 hours at 37° C. in medium. Cell number was quantitated using CellTiter-Glo™ Luminescent Cell Viability Assay (from Promega) according to the instructions of the supplier. This assay measures the number of viable cells per well by measurement of luminescent signal based on amount of cellular ATP. IC50 are determined using a non-linear curve fit (XLfit software (ID Business Solution Ltd., Guilford, Surrey, UK)) (see also CellTiter-Glo™ assay in HCT 116 cells above).

HCT 116 cells = test: CellTiter-Glo assay in HCT 116 cells; type: cell-based; conditions: 120 h; HCT 116 human colon carcinoma cells, 5 days incubation, cell viability (ATP luminescence)
Excerpt: CellTiter-Glo™ Assay in HCT 116 Cells:
The CellTiter-Glo™ Luminescent Cell Viability Assay (Promega) is a homogeneous method of determining the number of viable cells in culture based on quantitation of the ATP present, which signals the presence of metabolically active cells.
HCT 116 cells (human colon carcinoma, ATCC-No. CCl-247) were cultivated in RPMI 1640 medium with GlutaMAX™ I (Invitrogen, Cat-No. 61870-010), 5% Fetal Calf Serum (FCS, Sigma Cat-No. F4135 (FBS)); 100 Units/ml penicillin/100 μg/ml streptomycin (=Pen/Strep from Invitrogen Cat. No. 15140). For the assay the cells were seeded in 384 well plates, 1000 cells per well, in the same medium. The next day the test compounds were added in various concentrations ranging from 30 μM to 0.0015 μM (10 concentrations, 1:3 diluted). After 5 days the CellTiter-Glo™ assay was done according to the instructions of the manufacturer (CellTiter-Glo™ Luminescent Cell Viability Assay, from Promega). In brief: the cell-plate was equilibrated to room temperature for approximately 30 minutes and than the CellTiter-Glo™ reagent was added. The contents were carefully mixed for 15 minutes to induce cell lysis. After 45 minutes the luminescent signal was measured in Victor 2, (scanning multiwell spectrophotometer, Wallac).
• Medium: RPMI 1640 with GlutaMAX™ I (Invitrogen, Cat-Nr. 61870), 5% FCS (Sigma Cat.-No. F4135), Pen/Strep (Invitrogen, Cat No. 15140). • HCT116 (ATCC-No. CCl-247): 1000 cells in 60 μl per well of 384 well plate (Greiner 781098, μClear-plate white) • After seeding incubate plates 24 h at 37° C., 5% CO2 2nd. Day: Induction (Treatment with Compounds, 10 Concentrations):
In order to achieve a final concentration of 30 μM as highest concentration 3.5 μl of 10 mM compound stock solution were added directly to 163 μl media. Then step e) of the dilution procedure described below, was followed.

IC50 (HCT 116 cells) | SMILES | IC50 (VEGF-induced HUVEC cells)
– | O=C(Nc1ccc(Oc2cc(NCCCO)ncn2)cc1)Nc1ccc(Cl)c(C(F)(F)F)c1 [Example 23, 1-(4-Chloro-3-trifluoromethyl-phenyl)-3-{4-[6-(3-hydroxy-propylamino)-pyrimidin-4-yloxy]-phenyl}-urea] | 5 to 750 nM
300 to 10000 nM | O=C(Nc1ccc(Oc2cc(NCCO)ncn2)cc1)Nc1ccc(Cl)c(C(F)(F)F)c1 [Example 22, 1-(4-Chloro-3-trifluoromethyl-phenyl)-3-{4-[6-(2-hydroxy-ethylamino)-pyrimidin-4-yloxy]-phenyl}-urea] | 5 to 750 nM
– | O=C(Nc1ccc(Oc2ccnc(NCCCO)n2)cc1)Nc1cc(C(F)(F)F)ccc1Cl [Example 19, 1-(2-Chloro-5-trifluoromethyl-phenyl)-3-{4-[2-(3-hydroxy-propylamino)-pyrimidin-4-yloxy]-phenyl}-urea] | 5 to 750 nM
300 to 10000 nM | CC(C)(C)c1cccc(NC(=O)Nc2ccc(Oc3ccnc(NCCCO)n3)cc2)c1 [Example 4, 1-(3-tert-Butyl-phenyl)-3-{4-[2-(3-Hydroxy-propylamino)-pyrimidin-4-yloxy]-phenyl}-urea] | 5 to 750 nM
670 nM | O=C(Nc1ccc(Oc2ccnc(NCCCO)n2)cc1)Nc1cccc(OC(F)(F)F)c1 [Example 2, 1-{4-[2-(3-Hydroxy-propylamino)-pyrimidin-4-yloxy]-phenyl}-3-(3-trifluoromethoxy-phenyl)-urea] | 5 to 750 nM
300 to 10000 nM | O=C(Nc1ccccc1)Nc1ccc(Oc2ccnc(NCCCO)n2)cc1 [Example 13, 1-{4-[2-(3-Hydroxy-propylamino)-pyrimidin-4-yloxy]-phenyl}-3-phenyl-urea] | 5 to 750 nM
300 to 10000 nM | O=C(Nc1ccc(Oc2ccnc(NCCCO)n2)cc1)Nc1cc(C(F)(F)F)ccc1F [Example 8, 1-(2-Fluoro-5-trifluoromethyl-phenyl)-3-{4-[2-(3-Hydroxy-propylamino)-pyrimidin-4-yloxy]-phenyl}-urea] | 5 to 750 nM
300 to 10000 nM | O=C(Nc1ccc(Oc2ccnc(NCCCO)n2)c(F)c1)Nc1ccc(Cl)c(C(F)(F)F)c1 [Example 17, 1-(4-Chloro-3-trifluoromethyl-phenyl)-3-{3-fluoro-4-[2-(3-hydroxy-propylamino)-pyrimidin-4-yloxy]-phenyl}-urea] | 5 to 750 nM
300 to 10000 nM | O=C(Nc1ccc(Oc2ccnc(NCCCO)n2)cc1)Nc1ccc(OC(F)(F)F)cc1 [Example 3, 1-{4-[2-(3-Hydroxy-propylamino)-pyrimidin-4-yloxy]-phenyl}-3-(4-trifluoromethoxy-phenyl)-urea] | 5 to 750 nM
300 to 10000 nM | CC(C)(C#N)c1ccc(NC(=O)Nc2ccc(Oc3ccnc(NCCCO)n3)cc2)cc1 [Example 24, 1-[4-(Cyano-dimethyl-methyl)-phenyl]-3-{4-[2-(3-Hydroxy-propylamino)-pyrimidin-4-yloxy]-phenyl}-urea] | –
300 to 10000 nM | O=C(Nc1ccc(Cl)c(C(F)(F)F)c1)Nc1ccc(Oc2ccnc(NCCCO)n2)cc1F [Example 18, 1-(4-Chloro-3-trifluoromethyl-phenyl)-3-{2-fluoro-4-[2-(3-hydroxy-propylamino)-pyrimidin-4-yloxy]-phenyl}-urea] | 5 to 750 nM
300 to 10000 nM | CC1(C)CNc2cc(NC(=O)Nc3ccc(Oc4ccnc(NCCCO)n4)cc3)ccc21 [Example 29, 1-(3,3-Dimethyl-2,3-dihydro-1H-indol-6-yl)-3-{4-[2-(3-hydroxy-propylamino)-pyrimidin-4-yloxy]-phenyl}-urea] | 5 to 750 nM
3990 nM | O=C(Nc1ccc(Oc2ccnc(NCCCO)n2)cc1)Nc1ccc(Cl)c(C(F)(F)F)c1 [Example 9, 1-(4-Chloro-3-trifluoromethylphenyl)-3-{4-[2-(3-Hydroxy-propylamino)-pyrimidin-4-yloxy]-phenyl}-urea] | 5 to 750 nM
300 to 10000 nM | O=C(Nc1ccc(Oc2ccnc(NCCO)n2)cc1)Nc1ccc(Cl)c(C(F)(F)F)c1 [Example 11, 1-(4-Chloro-3-trifluoromethylphenyl)-3-{4-[2-(2-hydroxy-ethylamino)-pyrimidin-4-yloxy]-phenyl}-urea] | –
300 to 10000 nM | CC(C#N)c1cccc(NC(=O)Nc2ccc(Oc3ccnc(NCCCO)n3)cc2)c1 (stereo not drawn) [Example 26, 1-[3-(Cyano-methyl-methyl)-phenyl]-3-{4-[2-(3-hydroxy-propylamino)-pyrimidin-4-yloxy]-phenyl}-urea] | 5 to 750 nM
300 to 10000 nM | O=C(Nc1ccc(Oc2ccnc(NCCCO)n2)cc1)Nc1cccc(C(F)(F)F)c1 [Example 7, 1-{4-[2-(3-Hydroxy-propylamino)-pyrimidin-4-yloxy]-phenyl}-3-(3-trifluoromethyl-phenyl)-urea] | 5 to 750 nM
300 to 10000 nM | O=C(Nc1ccc(Oc2ccnc(NCCCCO)n2)cc1)Nc1ccc(Cl)c(C(F)(F)F)c1 [Example 10, 1-(4-Chloro-3-trifluoromethylphenyl)-3-{4-[2-(4-hydroxy-butylamino)-pyrimidin-4-yloxy]-phenyl}-urea] | 5 to 750 nM
300 to 10000 nM | CC(C)(C#N)c1cccc(NC(=O)Nc2ccc(Oc3ccnc(NCCCO)n3)cc2)c1 [Example 25, 1-[3-(Cyano-dimethyl-methyl)-phenyl]-3-{4-[2-(3-hydroxy-propylamino)-pyrimidin-4-yloxy]-phenyl}-urea] | 5 to 750 nM
300 to 10000 nM | O=C(Nc1ccc(Oc2cc(NCCCO)ncn2)cc1)Nc1cccc(C(F)(F)F)c1 [Example 21, 1-{4-[6-(3-Hydroxy-propylamino)-pyrimidin-4-yloxy]-phenyl}-3-(3-trifluoromethyl-phenyl)-urea] | 5 to 750 nM
300 to 10000 nM | CC(O)CCNc1nccc(Oc2ccc(NC(=O)Nc3ccc(Cl)c(C(F)(F)F)c3)cc2)n1 (stereo not drawn) [Example 12, 1-(4-Chloro-3-trifluoromethylphenyl)-3-{4-[2-(3-hydroxy-butylamino)-pyrimidin-4-yloxy]-phenyl}-urea] | 5 to 750 nM
– | O=C(Nc1ccc(Oc2ccnc(NCCCO)n2)c(Cl)c1)Nc1ccc(Cl)c(C(F)(F)F)c1 [Example 15, 1-(4-Chloro-3-trifluoromethyl-phenyl)-3-{3-chloro-4-[2-(3-hydroxy-propylamino)-pyrimidin-4-yloxy]-phenyl}-urea] | 5 to 750 nM
300 to 10000 nM | O=C(Nc1ccc(Oc2cc(NCCO)ncn2)cc1)Nc1cccc(C(F)(F)F)c1 [Example 20, 1-{4-[6-(2-Hydroxy-ethylamino)-pyrimidin-4-yloxy]-phenyl}-3-(3-trifluoromethyl-phenyl)-urea] | 5 to 750 nM
300 to 10000 nM | O=C(Nc1ccc(Oc2ccnc(NCCCO)n2)cc1)Nc1ccc2c(c1)OC(F)(F)O2 [Example 28, 1-(2,2-Difluoro-benzo[1,3]dioxol-5-yl)-3-{4-[2-(3-hydroxy-propylamino)-pyrimidin-4-yloxy]-phenyl}-urea] | 82 nM
– | COc1ccc(C(F)(F)F)cc1NC(=O)Nc1ccc(Oc2ccnc(NCCCO)n2)cc1 [Example 1, 1-{4-[2-(3-Hydroxy-propylamino)-pyrimidin-4-yloxy]-phenyl}-3-(2-methoxy-5-trifluoromethyl-phenyl)-urea] | 67 nM
– | CC(C)(C)c1ccc(NC(=O)Nc2ccc(Oc3ccnc(NCCCO)n3)cc2)cc1 [Example 5, 1-(4-tert-Butyl-phenyl)-3-{4-[2-(3-Hydroxy-propylamino)-pyrimidin-4-yloxy]-phenyl}-urea] | 5 to 750 nM

SMILES | IC50 (HCT 116 cells) | IC50 (VEGF-induced HUVEC cells)
C[Si](C)(C)c1ccc(NC(=O)Nc2ccc(Oc3ccnc(NCCCO)n3)cc2)cc1 [Example 14, 1-{4-[2-(3-Hydroxy-propylamino)-pyrimidin-4-yloxy]-phenyl}-3-(4-trimethylsilanyl-phenyl)-urea] | 1520 nM | 5 to 750 nM

— US8080552B2, “Pyrimidyl derivatives as protein kinase inhibitors” (Hoffmann-LA Roche Inc., priority 2006, dated 2011)
